Laboratory results from patent US10092515B2, “Liposomal formulations of polymyxin B and uses thereof” (University of Houston System, priority 2012, dated 2018).

Legend:
[1] = Onset of nephrotoxicity (serum creatinine >=2-fold baseline) at escalating daily doses; type: in vivo, Sprague-Dawley rats; conditions: rats
Text: Female Sprague-Dawley rats (225 to 250 g) (Harlan, Indianapolis, Ind.) were used. The rats received food and water ad libitum. All animals were cared for in accordance with the highest humane and ethical standards, as approved by the Institutional Animal Care and Use Committee (IACUC) of the University of Houston. The jugular veins of selected animals were cannulated to facilitate intravenous drug administration.
Prior to each experiment, polymyxin B for injection (USP) was reconstituted with sterile water for injection (USP) and diluted to achieve the desired concentration. The reconstituted drug solution was stored at −80° C. in aliquots and thawed immediately before dosing.
To mimic a clinical course of polymyxin B treatment, three groups of rats (n=13 each) were administered escalating dose levels of polymyxin B (5 mg/kg, 10 mg/kg, and 20 mg/kg, respectively) once daily subcutaneously for up to 7 days. Blood samples (approximately 200 μl) were drawn via the tail vein at baseline and on a daily basis (before dosing when applicable). Blood was allowed to clot on ice, and serum was separated by centrifugation at 4,000×g for 10 min. Serum samples (100 μl) were further assayed for creatinine levels by use of a clinical chemistry analyzer (Piccolo Xpress; Abaxis, Inc., Union City, Calif.). A significant elevation in serum creatinine (≥2-fold […] the baseline level) was set as the endpoint for nephrotoxicity. Kaplan-Meier survival analysis and a log rank (Mantel-Cox) test were used to compare the times of onset of nephrotoxicity among various groups. Right censoring was used if the nephrotoxicity endpoint was not observed by day 7.

[2] = Renal tissue concentration of polymyxin B at escalating dose levels; type: in vivo, Sprague-Dawley rats; conditions: rats, 24 h after first dose, summed components
Description: (§1) A validated ultraperformance liquid chromatography-tandem mass spectrometry (UPLC/MS-MS) method was modified to determine the concentrations of polymyxin B in rat serum and renal tissues, as previously described (32). The lower limit of quantification (LLOQ) was 50 ng/ml for all the major components of polymyxin B in serum as well as the renal tissue homogenate.
To determine the renal tissue concentration of polymyxin B, three rats from each dosing group were randomly selected and sacrificed at 24 h after the first dose; kidneys were harvested and homogenized. A fixed time point was selected to avoid any potential confounding due to different cumulative doses received when nephrotoxocity was observed. The concentrations of the major components of polymyxin B (polymyxin B1, polymyxin B2, polymyxin B3, and isoleucine polymyxin B1) were determined in […] as described above.
For the purpose of drug quantification in the renal tissue homogenates, the estimated concentrations were divided by the total weight of the kidney and the final concentrations were expressed per gram of renal tissue (in micrograms/gram). The summed concentrations of individual components were used to estimate the overall renal drug exposure (33). One-way analysis of variance (ANOVA) and then post hoc Tukey's test were used to compare the mean renal tissue concentrations among the dosing groups, and P values of <0.05 were considered significant.

[3] = Polymyxin B pharmacokinetics in megalin-shedding rats (serum and renal tissue); type: in vivo, Sprague-Dawley rats; conditions: for AUC0-∞, renal tissue/AUC0-∞, serum ratio / AUC0-∞, renal tissue / AUC0-∞, serum / renal tissue polymyxin B concentration (3 h postdosing): rats, 3 mg/kg IV
Description: as §1
To study the impact of sodium maleate pretreatment on systemic/renal exposure of polymyxin B, the rats were divided into two groups (n=13 each). Animals in both control and experimental groups were administered a single intravenous dose of 3 mg/kg of polymyxin B sulfate (USP). The intravenous route of polymyxin B administration was preferred to avoid any interference with drug absorption at the injection site. In addition, the animals in the experimental group were given 400 mg/kg of sodium maleate intraperitoneally 3 to 6 h prior to polymyxin B administration. Serum samples were obtained at 1.5, 3, 4.5, 6, and 7.5 h after polymyxin B dosing. In addition, the rats were sacrificed to harvest the kidneys at 3, 6, and 24 h (n=3 at each time point) postdosing. Polymyxin B concentrations in serum and renal tissue samples were assayed by the validated UPLC-MS/MS method detailed above.
The mean concentrations of polymyxin B in serum, as well as in renal tissue samples, at each time point were used. A modified two-compartment model (data not shown) was used to cofit the serum/renal tissue concentration-time profiles using ADAPT 5 (University of Southern California, Los Angeles, Calif.). Using the best-fit parameters, the AUC0-∞ was estimated by integrating instantaneous concentrations with respect to time. The AUC0-∞, renal tissue/AUC0-∞, serum ratio was used as an index to quantitatively assess preferential accumulation of polymyxin B in renal tissue.
To further examine whether the effect of sodium maleate on the renal accumulation of polymyxin B is transient, three additional rats were given a single dose of 400 mg/kg of sodium maleate intraperitoneally. Two weeks later, the animals were given a single dose of 3 mg/kg of polymyxin B intravenously. The rats were sacrificed at 3 h postdosing; kidneys were harvested and homogenized. Polymyxin B concentrations in renal tissue samples were assayed by the validated UPLC-MS/MS method.

[4] = test system: multiple drug resistant (MDR) Pseudomonas aeruginosa strain (PA 9019); conditions: PA 9019, previously determined; cited from earlier work
[5] = test system: P. aeruginosa ATCC 27853 (PA 27853); conditions: PA 27853, previously determined; cited from earlier work
[6] = experimental group: 400 mg/kg sodium maleate i.p. 3 to 6 h before

Substance: Polymyxin B
- animals that reached the predefined nephrotoxicity endpoint by day 7 ([1]; 5 mg/kg once daily subcutaneously up to 7 days): none
- animals that reached the nephrotoxicity endpoint within the first 48 h of treatment ([1]; 10 mg/kg daily subcutaneously): 1 out of 10
- animals that reached the nephrotoxicity endpoint within the first 48 h of treatment ([1]; 20 mg/kg daily subcutaneously): 8 out of 10
- animals that reached the predefined nephrotoxicity endpoint (serum creatinine >=2-fold baseline) ([1]; 20 mg/kg once daily subcutaneously up to 7 days): 10 out of 10
- concentration of polymyxin B in renal tissue ([2]; 5-mg/kg dosing group): 3.6 ± 0.4 µg/g
- concentration of polymyxin B in renal tissue ([2]; 10-mg/kg dosing group): 9.9 ± 1.5 µg/g
- concentration of polymyxin B in renal tissue ([2]; 20-mg/kg dosing group): 21.7 ± 4.8 µg/g
- attenuation of polymyxin B exposure in renal tissue after pretreatment with maleate ([3]; megalin-shedding rats vs control): approximately 40%
- AUC0-∞, renal tissue/AUC0-∞, serum ratio ([3]; control group): 19.1
- AUC0-∞, renal tissue ([3]; control group (no maleate)): 211.9 mg·h/L
- AUC0-∞, serum ([3]; control group (no maleate)): 10.4 mg·h/L
- renal tissue polymyxin B concentration (3 h postdosing) ([3]; control rats): 11.45 µg/g
- AUC0-∞, renal tissue/AUC0-∞, serum ratio ([3]; experimental group (maleate pretreatment)): 11.6
- AUC0-∞, renal tissue [3, 6]: 121.0 mg·h/L
- AUC0-∞, serum [3, 6]: 11.1 mg·h/L
- renal tissue polymyxin B concentration (3 h postdosing) ([3]; sodium maleate 400 mg/kg given 2 weeks earlier): 11.08 µg/g
- minimum inhibitory concentration (MIC) [4]: 4 mg/L
- minimum inhibitory concentration (MIC) [5]: 2 mg/L
